Laboratory results reported in patent US20030087830A1, “Low molecular weight components of cartilage, complexes of metals with amino acids, DI-peptides and analogs thereof; processes for preparation and therapeutic uses thereof” (priority 2001, published 2003).
Values belong to the molecule of their own block, whether it stands above or below them.

Columns and labels:
[1] = test system: Endothelial cells (HUVEC, BAEC); test: Endothelial cell proliferation; assay type: cell-based, human / bovine; conditions: for EC50: 48 hours, copper equivalent, NA = less than 50% at 1.25 mM copper equivalent, read-out: EC proliferation (EC50 mM)
Protocol: Endothelial and tumor cell proliferation assays were performed to determine the ability of test samples to inhibit endothelial cell proliferation (antiangiogenic activity), normal cell proliferation,and tumor cell proliferation.
Endothelial cells (Human umbilical vein endothelial cells (HUVEC), bovine aortic endothelial cells (BAEC)), skeletal muscle cells, human dermal fibroblasts (all from Clonetics, Walkersville, Md.) were respectively maintained in EBM-2, MDEM, SKGM and FGFM-2 complete media according to manufacturer's instructions. Tumor rat glioblastoma cell line (C6) was maintained in DMEM (Sigma, Oaksville, Ontario) supplemented with 10% fetal calf serum (FCS) and antibiotics in 5% CO2. Briefly, cells seeded in 96-well sterile tissue culture dishes were treated with increasing concentrations of different test samples for a period of 48 hours at 37° C. Cell number was then evaluated by a calorimetric assay using the cell proliferation reagent tetrazolium salt and the fluorimetric assay using DNA dye (Hoescht) according to the procedure established by the manufacturer (Boehringer Mannhein). The conversion of these tetrazolium salts into formazan occurs only in metabolically active cells. The percentage of cell inhibition was determined by comparison to untreated cells.
(§1) According to the endothelial cell proliferation assay, the relative effectiveness of two compounds is compared by reference to the EC50 thereof. The EC50 is the concentration of compound at which the number of endothelial cells is reduced by 50% as compared to control. The efficacy of the test samples in EVT is established by the percent of eggs with altered angiogenesis at a given inhibitor dose of 0.6 mg of copper equivalent (see FIG. 6 for examples). A comparison of the antiangiogenic activity of the compounds of the present invention with divalent metal salts (CuCl2, MgCl2, ZnCl2, CoCl2) and uncoupled alpha-amino acids, alpha-imino acids, dipeptides, and nitrogenated molecules comprising a carboxylic acid group, such as creatine, is provided to illustrate that the formation of the amino acid-copper complex gives rise to complexes having antiangiogenic activity.

[2] = test system: blood vessel formation in the vitelline membrane of chick embryo; test: Embryonic Vascularization Test (EVT); assay type: in vivo; conditions: for EVT (% of inhibition): activity at 0.6 mg equivalent Copper; for EVT activity (in words): in vivo
Protocol: The Embryonic Vascularization Test (EVT) was performed to determine the ability of test samples to inhibit the formation of new blood vessels (antiangiogenic activity).
The normal development of a chick embryo involves the formation of an external vascular system located in the vitelline membrane which carries nutrients from the vitellus (yolk) to the developing embryo. When placed onto the vitelline membrane, antiangiogenic substances can inhibit the blood vessel formation that occurs in the vitelline membrane. Briefly, methylcellulose discs (an inert solid and transparent matrix) containing different test samples were placed on the external border of the vascular perimeter of the vitelline membrane, where the angiogenic process occurs. Vascularization was assessed 24 hours after disc deposition, and results were expressed as the percent of embryos in which blood vessel formation was affected. The blood vessel formation was considered affected when its growing path was either deviated, or diminished or when there was no growth observed beyond the disc as compared to the negative control. The results are expressed as 0, +, and ++ where 0 is for a lower response than 25 percent of the eggs; + is for a response between 25 and 50 percent; and ++ is for an antiangiogenic response observed in more than 50 percent of the eggs.
as §1

[3] = Affinity of the amino acid with copper; assay type: physicochemical
Endothelial cells [4] = test: Endothelial cell tubule formation assay (tubulogenesis); assay type: cell-based; design: key to Tubulogenesis: 0: Numerous capillary-like tube forming pentagonal network; +: Decrease of capillary-like tubes; ++: Dramatic decrease of capillary-like tubes; +++: Absence of capillary-like tubes
Protocol: The endothelial cell tubule formation assay is a semi-quantitative assay that was performed to determine the ability of test samples to inhibit this multi-step process, which involves cell adhesion, migration, differentiation and growth, using a commercial kit (Chemicon). Briefly, endothelial cells were seeded on solid gel of Ecmatrix™ (Chemicon), basement proteins prepared from the Engelbreth Holm-Swarm (EHS) mouse tumor in microplate in a E-99 media (Sigma) supplemented with 5% FBS and VEGF (50 ng/ml) in the presence or absence of the test sample. Cells were incubated for a period of 24 hours at 37° C. Pictures were taken on the entire tissue culture dish using a binocular microscope for further evaluation.

[5] = test system: bFGF-stimulated blood vessel formation in Matrigel; test: Matrigel in vivo angiogenesis assay; design: species or system C57B1/6 mice; conditions: intra-peritoneal daily 10 days
Protocol: The Matrigel™ in vivo assay was performed to determine the ability of test samples to inhibit blood vessel formation (antiangiogenic activity) and to establish their bioavailability in vivo.
Briefly, liquid Matrigel™ (Becton Dickinson, Bedford, Mass.) was maintained at 4° C. and mixed thoroughly for at least 3 hours with 1,500 ng/ml basic fibroblast growth factor (bFGF) (R&D Systems, Minneapolis, Minn.) used as the primary angiogenic stimulus. The mixture (0.5 ml) was injected subcutaneously into the ventral midline of C57B1/6 mice, and treatment with different test samples or saline solution was initiated the same day. Additional animals were also injected with Matrigel™ containing no bFGF to serve as baseline controls. The animals were treated daily for a 10 day period (intra-peritonealy, 0.2 ml of each dose). At day 11, animals were injected with FITC-dextran 20 min prior to euthanizing treated mice. Matrigel™ gels were removed along with underlying peritoneum and prepared for FITC-dextran detection by fluorimetry. The concentration of FITC-dextran in the gels was calculated from a known concentration of FITC-dextran using a standard curve. The FITC-dextran content of the gels from compound-treated animals and controls was expressed as a percent of the positive bFGF-treated controls after the baseline control of FITC-dextran levels were subtracted from all groups.

Endothelial cells [6] = test: Endothelial cell migration assay (VEGF, modified Boyden chamber); assay type: cell-based
Protocol: The endothelial cell migration assay was performed to determine the ability of test samples to inhibit the chemotaxic activity of vascular endothelial growth factor (VEGF;R/D System, MN) using a modified Boyden chamber (Transwell™, Corning/Costar). Briefly, polyvinylidene difluoride filters (PVDF) were coated with Pronectin F (Biosources, CA), a constituent of basement membrane barrier. Boyden chambers were assembled by adding VEGF to the culture media in the lower chamber (chemoattractant). Endothelial cells suspended in cultured media in the presence or the absence of the test samples were added to the upper chamber. The chambers were then incubated for a period of 4.5 hours at 37° C. At the end of the incubation period, the cells from both side of the PVDF membrane were fixed with 3.7% formaldehyde. Cells from the upper surface of the membrane were mechanically removed, and the cells remaining on the underside of the membrane were stained with crystal violet (0.5%; Sigma). Cells were then carefully rinsed and the dye fixed to the cells was quantified with a microplate reader ([…]) after its solubilization with a solution of 50% citric acid (0.1M) in water and 50% ethanol.

[7] = 2.5 mM free (not complexed) ligand

Molecule: [Cl-].[Cl-].[Co+2] [Co++, reference compound]
EC50 [1]: 0.27 mM

Affinity of the AA with Cooper [3]: 16.0
Molecule: NCC(=O)[O-].NCC(=O)[O-].[Cu+2] [Compound 1, Gly:Cu:GIy]
EVT (% of inhibition) [2]: ++ (++ more than 50% of inhibition) | EC50 [1]: 0.27 mM

Molecule: C[C@H](N)C(=O)[O-].C[C@H](N)C(=O)[O-].[Cu+2] [Compound 2, L-Ala:Cu:L-Ala]
EVT (% of inhibition) [2]: ++ (++ more than 50% of inhibition) | Affinity of the AA with Cooper [3]: 15.9 | EC50 [1]: 0.28 mM

Affinity of the AA with Cooper [3]: 15.4
Molecule: N[C@@H](CO)C(=O)[O-].N[C@@H](CO)C(=O)[O-].[Cu+2] [Compound 3, L-Ser:Cu:L-Ser]
EVT (% of inhibition) [2]: 0 (0 non-active (less than 25% of inhibition)) | EVT activity (in words) [2]: inactive | EC50 [1]: 0.34 mM

Affinity of the AA with Cooper [3]: 15.2
Molecule: CC(C)C(N)C(=O)[O-].CC(C)C(N)C(=O)[O-].[Cu+2] [Compound 4, L-Val:Cu:L-Val]
EVT (% of inhibition) [2]: + (+ between 25-50% of inhibition) | EC50 [1]: 0.35 mM

Affinity of the AA with Cooper [3]: 14.9
Molecule: N=C(N)NCCC[C@H](N)C(=O)[O-].N=C(N)NCCC[C@H](N)C(=O)[O-].[Cu+2] [Compound 8, L-Arg:Cu:L-Arg]
EVT (% of inhibition) [2]: + (+ between 25-50% of inhibition) | EC50 [1]: 0.32 mM

Affinity of the AA with Cooper [3]: 14.4
Molecule: NCCCC[C@H](N)C(=O)[O-].NCCCC[C@H](N)C(=O)[O-].[Cu+2] [Compound 9, L-Lys:Cu:L-Lys]
EVT (% of inhibition) [2]: ++ (++ more than 50% of inhibition) | EC50 [1]: 0.35 mM

Affinity of the AA with Cooper [3]: 15.5
Molecule: NC(=O)CC[C@H](N)C(=O)[O-].NC(=O)CC[C@H](N)C(=O)[O-].[Cu+2] [Compound 11, L-Gln:Cu:L-Gln]
EVT (% of inhibition) [2]: 0 (0 non-active (less than 25% of inhibition)) | EC50 [1]: 0.76 mM

Affinity of the AA with Cooper [3]: 16.6
Molecule: CC[C@H](C)[C@H](N)C(=O)[O-].CC[C@H](C)[C@H](N)C(=O)[O-].[Cu+2] [Compound 12, L-Ile:Cu:L-IIe]
EC50 [1]: 0.48 mM

Molecule: CC(N)C(=O)[O-].CC(N)C(=O)[O-].[Cu+2] [Compound 13, D-Ala:Cu:D-Ala]
Endothelial cell proliferation activity (in words) [1]: active | EC50 [1]: 0.44 mM

Molecule: CC(O)C(N)C(=O)[O-].CC(O)C(N)C(=O)[O-].[Cu+2] [Compound 16, D-Thr:Cu:D-Thr]
EVT activity (in words) [2]: active | Endothelial cell proliferation activity (in words) [1]: active | EC50 [1]: 0.3 mM

Molecule: N[C@H](Cc1c[nH]cn1)C(=O)[O-].N[C@H](Cc1c[nH]cn1)C(=O)[O-].[Cu+2] [Compound 17, D-His:Cu:D-His]
EVT activity (in words) [2]: inactive | Endothelial cell proliferation activity (in words) [1]: inactive

Molecule: C[C@H](N)C(=O)O.N[C@@H](CCC(=O)[O-])C(=O)[O-].[Cu+2] [Compound 20, L-Ala:Cu:L-Glu]
EC50 [1]: 0.28 mM

Molecule: C[C@@H](O)[C@H](N)C(=O)[O-].N[C@@H](CC(=O)O)C(=O)[O-].[Cu+2] [Compound 25, L-Asp:Cu:L-Thr]
EC50 [1]: 0.29 mM

Affinity of the AA with Cooper [3]: 17.6
Molecule: O=C([O-])[C@@H]1CCCN1.O=C([O-])[C@@H]1CCCN1.[Cu+2] [Compound 28, L-Pro:Cu:L-Pro]
Endothelial cell proliferation activity (in words) [1]: active complex | EC50 [1]: 0.28 mM

Molecule: [Cl][Cu][Cl] [CuCl2, copper chloride, reference compound]
Tubulogenesis activity (in words) (Endothelial cells [4]): did not show any activity | Tubulogenesis (Endothelial cells [4]; 1.25 mM): 0 | Matrigel in vivo % inhibition ([5]; 7.0 mg/Kg equivalent copper): 24.2% | Cell migration activity (in words) (Endothelial cells [6]): did not show any activity | Cell Migration (% inhibition) (Endothelial cells [6]; 1.25 mM): 6%

Molecule: N[C@@H](CC(=O)O)C(=O)O [Free Asp, aspartic acid, reference compound]
Tubulogenesis (Endothelial cells [4]; [7]): 0

Molecule: N[C@@H](Cc1c[nH]cn1)C(=O)O [Free His, histidine, reference compound]
Tubulogenesis (Endothelial cells [4]; [7]): 0

Molecule: C[C@@H](O)[C@H](N)C(=O)O [Free Thr, threonine, reference compound]
Tubulogenesis (Endothelial cells [4]; [7]): 0

Molecule: [Cl-].[Cl-].[Zn+2] [Zn++, reference compound]
EC50 [1]: 0.19 mM

Molecule: (Creatine)2-Cu [Compound 34]
Endothelial cell proliferation activity (in words) [1]: excellent activity | EC50 [1]: 0.28 mM

Molecule: D-Asp:Cu:D-Asp [Compound 14]
Endothelial cell proliferation activity (in words) [1]: active | EC50 [1]: 0.37 mM

Molecule: D-Glu:Cu:D-GIu [Compound 15]
Endothelial cell proliferation activity (in words) [1]: active | EC50 [1]: 0.35 mM

Molecule: Gly:Cu:L-Asp [Compound 22]
EC50 [1]: 0.41 mM

Molecule: Gly:Cu:L-Glu [Compound 24]
EC50 [1]: 0.33 mM

Molecule: Gly:Cu:L-Thr [Compound 23]
EC50 [1]: 0.48 mM

Molecule: L-AIa:Cu:L-Asp [Compound 21]
EC50 [1]: 0.32 mM

Molecule: L-Ala:Cu:Gly [Compound 18]
EC50 [1]: 0.29 mM

Molecule: L-Ala:Cu:L-Thr [Compound 19]
EC50 [1]: 0.36 mM

Molecule: L-Asp-Co-L-Asp [Compound 30]
EC50 [1]: 0.27 mM

Molecule: L-Asp-Zn-L-Asp [Compound 32]
EC50 [1]: 0.18 mM

Molecule: L-Asp:Cu:L-Glu [Compound 26]
EC50 [1]: 0.25 mM

Molecule: L-Glu:Cu:L-Glu [Compound 7]
EVT (% of inhibition) [2]: ++ (++ more than 50% of inhibition) | EC50 [1]: 0.35 mM | Matrigel in vivo % inhibition ([5]; 1.4 mg/Kg equivalent copper): 42.6% | Matrigel in vivo % inhibition ([5]; 7.0 mg/Kg equivalent copper): 71.2%

Molecule: L-Glu:Cu:L-Thr [Compound 27]
EC50 [1]: 0.4 mM
